# System: sAPP secretion
# Assay: Enhancement of sAPP secretion (immunoblot with 6E10 antibody, densitometry)
# Assay type: cell-based, Human
# Settings: compound at 10 μM; FIG. 4
# Description: Determination of the enhancement of sAPP secretion promoted by LQ-β series of compounds:
# Human fibroblasts were obtained from the Coriell Cell Repositories (Camden, N.J.). Four AD cell lines (AG06848, AG04401, AG07377, AG06263) and four age-matched control cell lines (AG07141, AG06241, AG08044, AG04560) were grown to confluence in T75 cell culture flasks. Additional information about these cell lines can be found in the Catalog of Cell Lines from the National Institute of Aging. (National Institute of Aging, Catalog of Cell Lines (1994)). The culture medium was DMEM supplemented with 10% serum (FBS, Gibco). PC12 cells were obtained from the American Cell Culture Collection and grown to confluence in T75 flasks containing DMEM supplemented with 5% FBS (Gibco), 10% horse serum (Biofluids) and 1% of a mixture of penicillin (5,000 units/ml in G sodium) and streptomycin (5,000 μg/ml).
# Cells in T-75 were seeded into 100 mm cell culture plates and allowed to grow for 2 days. […]
# Conventional immunoblotting techniques were employed. […] Horseradish peroxidase bound signal was detected using an enhanced chemiluminescence followed by exposure to Hyperfilm ECL (Amersham). The band intensities were quantified by densitometric analyses using a BioRad GS-710 Scanning Densitometer and Multianalyst software (BioRad).
smiles,measurement,value
"O=C(O)CC(CP(=O)(O)O)C(=O)N1CCN(C(=O)OCCOc2ccccc2)CC1 (stereo not shown) [LQ-∃1, 4-(2-Carboxymethyl-3-phosphono-propionyl)-piperazine-1-carboxylic acid 2-phenoxy-ethyl ester]",effect on sAPP secretion compared to vehicle (DMSO) alone,marked effect of enhancing secretion

# From patent publication US6562783B2, “Phosphinylmethyl and phosphorylmethyl succinic and glutauric acid analogs as β-secretase inhibitors” (Neurologic, Inc., priority 2001, dated 2003)
